Reference: ChEMBL document CHEMBL2163199, “Moderate chemical modifications of WAY-100635 improve the selectivity for 5-HT1A versus D4 receptors” (Bioorg Med Chem Lett, 2012)
Values belong to the compound of their own block, whether it stands above or below them. Calls of active or inactive are those of the source. The rule behind the calls is not given here.

Assays:
[1] = target: T1, 5-hydroxytryptamine receptor 1A (Homo sapiens, UniProt P08908); experiment: biochemical
T1 sequence (P08908 whole entry): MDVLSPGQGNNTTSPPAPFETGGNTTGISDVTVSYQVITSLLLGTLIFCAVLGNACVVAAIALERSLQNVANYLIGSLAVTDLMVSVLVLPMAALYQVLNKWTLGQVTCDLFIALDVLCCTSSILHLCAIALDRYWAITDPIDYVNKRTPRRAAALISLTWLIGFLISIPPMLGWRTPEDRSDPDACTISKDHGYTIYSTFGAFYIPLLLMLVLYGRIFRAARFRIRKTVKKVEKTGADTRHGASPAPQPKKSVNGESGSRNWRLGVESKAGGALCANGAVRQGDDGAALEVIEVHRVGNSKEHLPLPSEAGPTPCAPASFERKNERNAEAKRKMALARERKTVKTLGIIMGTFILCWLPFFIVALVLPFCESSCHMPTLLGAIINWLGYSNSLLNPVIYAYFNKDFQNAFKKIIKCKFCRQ
Description: Displacement of [3H]8-OH-DPAT from human cloned 5-HT1A receptor expressed in CHO cells after 60 mins by liquid scintillation counting

[2] = buffer, pH 7.4
Description: Lipophilicity, log K of the compound in 50 mM PBS at pH 7.4-10 to 60% methanol mixture by HPLC method

D(4) dopamine receptor [3] = target: T2, D(4) dopamine receptor (Homo sapiens, UniProt P21917); experiment: biochemical
T2 sequence (P21917 whole entry): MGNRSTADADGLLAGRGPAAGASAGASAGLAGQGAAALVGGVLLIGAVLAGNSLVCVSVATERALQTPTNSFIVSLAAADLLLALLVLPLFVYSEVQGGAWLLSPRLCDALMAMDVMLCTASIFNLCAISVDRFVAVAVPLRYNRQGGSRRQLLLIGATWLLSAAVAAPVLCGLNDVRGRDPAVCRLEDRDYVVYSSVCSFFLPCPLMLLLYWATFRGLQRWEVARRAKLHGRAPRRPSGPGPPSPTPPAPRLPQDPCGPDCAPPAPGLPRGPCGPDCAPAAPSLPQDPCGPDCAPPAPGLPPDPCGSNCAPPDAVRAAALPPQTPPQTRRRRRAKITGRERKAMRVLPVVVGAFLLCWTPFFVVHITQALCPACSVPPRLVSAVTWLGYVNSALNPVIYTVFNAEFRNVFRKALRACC
Description: Displacement of [3H]-YM-09151-2 from human cloned D4 receptor expressed in Sf9 cells after 60 mins by liquid scintillation counting

[4] = target: Alpha-2A adrenergic receptor (Homo sapiens) (UniProt P08913); experiment: Binding affinity to adrenergic alpha2A receptor at 10 uM by radioligand binding assay
[5] = target: 5-hydroxytryptamine receptor 3A (Homo sapiens) (UniProt P46098); experiment: Binding affinity to 5HT3 receptor at 10 uM by radioligand binding assay
[6] = target: T1, 5-hydroxytryptamine receptor 1A
Description: Binding affinity to 5HT1A receptor by radioligand binding assay

[7] = target: T3, 5-hydroxytryptamine receptor 1A (Rattus norvegicus) (UniProt P19327); experiment: Antagonist activity of 5-HT1A receptor in Wistar rat dorsal raphe serotonergic neuron assessed as reversal of 8-OH-DPAT-induced decrease in firing rate at 100 nM by electrophysiological test; assay type: functional; design: scale not given: the % may be the effect or the level left
T3 sequence (whole entry): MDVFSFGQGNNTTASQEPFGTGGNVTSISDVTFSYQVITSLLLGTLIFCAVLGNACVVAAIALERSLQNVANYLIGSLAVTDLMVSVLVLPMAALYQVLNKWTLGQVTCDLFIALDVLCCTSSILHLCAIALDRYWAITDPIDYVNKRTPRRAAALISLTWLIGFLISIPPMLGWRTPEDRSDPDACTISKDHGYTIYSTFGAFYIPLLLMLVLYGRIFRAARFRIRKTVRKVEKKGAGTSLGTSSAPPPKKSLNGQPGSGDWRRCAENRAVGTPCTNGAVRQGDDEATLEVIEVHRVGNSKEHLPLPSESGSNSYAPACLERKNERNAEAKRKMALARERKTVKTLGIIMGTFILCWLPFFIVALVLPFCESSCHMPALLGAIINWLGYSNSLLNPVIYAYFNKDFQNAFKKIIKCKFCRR

[8] = target: 5-hydroxytryptamine receptor 5A (Homo sapiens) (UniProt P47898); experiment: Binding affinity to 5HT5A receptor at 10 uM by radioligand binding assay
[9] = target: Muscarinic acetylcholine receptor M3 (Homo sapiens) (UniProt P20309); experiment: Binding affinity to muscarinic M3 receptor at 10 uM by radioligand binding assay
[10] = target: Histamine H3 receptor (Homo sapiens) (UniProt Q9Y5N1); experiment: Binding affinity to histamine H3 receptor at 10 uM by radioligand binding assay
[11] = target: 5-hydroxytryptamine receptor 1E (Homo sapiens) (UniProt P28566); experiment: Binding affinity to 5HT1E receptor at 10 uM by radioligand binding assay
[12] = target: 5-hydroxytryptamine receptor 7 (Homo sapiens, UniProt P34969)
Description: Binding affinity to 5HT7 receptor by radioligand binding assay

[13] = target: Sodium-dependent dopamine transporter (Homo sapiens) (UniProt Q01959); experiment: Binding affinity to DAT at 10 uM by radioligand binding assay
[14] = target: Muscarinic acetylcholine receptor M2 (Homo sapiens) (UniProt P08172); experiment: Binding affinity to muscarinic M2 receptor at 10 uM by radioligand binding assay
[15] = target: Sigma non-opioid intracellular receptor 1 (Homo sapiens) (UniProt Q99720); experiment: Binding affinity to sigma 1 receptor at 10 uM by radioligand binding assay
[16] = target: T3, 5-hydroxytryptamine receptor 1A (Rattus norvegicus); experiment: Agonist activity of 5-HT1A receptor in Wistar rat dorsal raphe serotonergic neuron assessed as inhibition of firing at 1 nM to 1 uM by electrophysiological test; assay type: functional
[17] = target: 5-hydroxytryptamine receptor 6 (Homo sapiens) (UniProt P50406); experiment: Binding affinity to 5HT6 receptor at 10 uM by radioligand binding assay
D(4) dopamine receptor [18] = target: T2, D(4) dopamine receptor
Description: Binding affinity to dopamine D4 receptor by radioligand binding assay

[19] = target: D(1A) dopamine receptor (Homo sapiens) (UniProt P21728); experiment: Binding affinity to dopamine D1 receptor at 10 uM by radioligand binding assay
[20] = target: 5-hydroxytryptamine receptor 1D (Homo sapiens) (UniProt P28221); experiment: Binding affinity to 5HT1D receptor at 10 uM by radioligand binding assay
[21] = target: Beta-1 adrenergic receptor (Homo sapiens) (UniProt P08588); experiment: Binding affinity to adrenergic beta1 receptor at 10 uM by radioligand binding assay
[22] = target: D(3) dopamine receptor (Homo sapiens) (UniProt P35462); experiment: Binding affinity to dopamine D3 receptor at 10 uM by radioligand binding assay
[23] = target: Alpha-1B adrenergic receptor (Homo sapiens, UniProt P35368)
Description: Binding affinity to adrenergic alpha1B receptor by radioligand binding assay

[24] = target: Muscarinic acetylcholine receptor M4 (Homo sapiens) (UniProt P08173); experiment: Binding affinity to muscarinic M4 receptor at 10 uM by radioligand binding assay
[25] = target: 5-hydroxytryptamine receptor 2C (Homo sapiens) (UniProt P28335); experiment: Binding affinity to 5HT2C receptor at 10 uM by radioligand binding assay
[26] = Binding affinity to GABAA receptor at 10 uM by radioligand binding assay
[27] = Binding affinity to sigma 2 receptor at 10 uM by radioligand binding assay
[28] = target: D(1B) dopamine receptor (Homo sapiens) (UniProt P21918); experiment: Binding affinity to dopamine D5 receptor at 10 uM by radioligand binding assay
[29] = target: Muscarinic acetylcholine receptor M1 (Homo sapiens) (UniProt P11229); experiment: Binding affinity to muscarinic M1 receptor at 10 uM by radioligand binding assay
[30] = target: Alpha-2B adrenergic receptor (Homo sapiens) (UniProt P18089); experiment: Binding affinity to adrenergic alpha2B receptor at 10 uM by radioligand binding assay
[31] = target: 5-hydroxytryptamine receptor 2B (Homo sapiens, UniProt P41595); experiment: Binding affinity to 5HT2B receptor by radioligand binding assay; conditions: read-out: Ki(app)
[32] = target: Beta-2 adrenergic receptor (Homo sapiens) (UniProt P07550); experiment: Binding affinity to adrenergic beta2 receptor at 10 uM by radioligand binding assay
[33] = Binding affinity to rat benzodiazepine binding site at 10 uM by radioligand binding assay
[34] = target: Beta-3 adrenergic receptor (Homo sapiens) (UniProt P13945); experiment: Binding affinity to adrenergic beta3 receptor at 10 uM by radioligand binding assay
[35] = target: Alpha-1A adrenergic receptor (Homo sapiens, UniProt P35348); experiment: Binding affinity to adrenergic alpha1A receptor by radioligand binding assay; conditions: read-out: Ki(app)
[36] = target: D(2) dopamine receptor (Homo sapiens) (UniProt P14416); experiment: Binding affinity to dopamine D2 receptor at 10 uM by radioligand binding assay
[37] = target: 5-hydroxytryptamine receptor 1B (Homo sapiens) (UniProt P28222); experiment: Binding affinity to 5HT1B receptor at 10 uM by radioligand binding assay
[38] = target: Muscarinic acetylcholine receptor M5 (Homo sapiens) (UniProt P08912); experiment: Binding affinity to muscarinic M5 receptor at 10 uM by radioligand binding assay
[39] = target: 5-hydroxytryptamine receptor 2A (Homo sapiens, UniProt P28223); experiment: Binding affinity to 5HT2A receptor by radioligand binding assay; conditions: read-out: Ki(app)

Chain of Beta-1 adrenergic receptor (Homo sapiens) (P08588 whole entry, looked up): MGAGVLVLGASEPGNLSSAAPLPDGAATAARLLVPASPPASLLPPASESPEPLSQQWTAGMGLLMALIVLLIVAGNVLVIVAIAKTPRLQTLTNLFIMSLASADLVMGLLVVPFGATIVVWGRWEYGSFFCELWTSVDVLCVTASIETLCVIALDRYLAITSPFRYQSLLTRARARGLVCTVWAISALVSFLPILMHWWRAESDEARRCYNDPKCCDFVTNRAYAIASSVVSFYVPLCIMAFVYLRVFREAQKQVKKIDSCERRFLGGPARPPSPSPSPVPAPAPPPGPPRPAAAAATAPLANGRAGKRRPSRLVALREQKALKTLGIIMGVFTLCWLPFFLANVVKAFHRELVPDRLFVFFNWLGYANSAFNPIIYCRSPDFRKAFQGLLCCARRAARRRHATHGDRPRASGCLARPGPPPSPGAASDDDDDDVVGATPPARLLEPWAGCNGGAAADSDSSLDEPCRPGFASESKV
Chain of Sigma non-opioid intracellular receptor 1 (Homo sapiens) (Q99720 whole entry): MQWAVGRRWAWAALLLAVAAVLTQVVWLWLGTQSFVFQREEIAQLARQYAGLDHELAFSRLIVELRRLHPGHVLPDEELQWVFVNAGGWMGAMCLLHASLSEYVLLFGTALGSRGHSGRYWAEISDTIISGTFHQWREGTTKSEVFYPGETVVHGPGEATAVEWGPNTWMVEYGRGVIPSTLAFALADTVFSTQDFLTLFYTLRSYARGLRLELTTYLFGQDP
Chain of 5-hydroxytryptamine receptor 1B (Homo sapiens) (P28222 whole entry): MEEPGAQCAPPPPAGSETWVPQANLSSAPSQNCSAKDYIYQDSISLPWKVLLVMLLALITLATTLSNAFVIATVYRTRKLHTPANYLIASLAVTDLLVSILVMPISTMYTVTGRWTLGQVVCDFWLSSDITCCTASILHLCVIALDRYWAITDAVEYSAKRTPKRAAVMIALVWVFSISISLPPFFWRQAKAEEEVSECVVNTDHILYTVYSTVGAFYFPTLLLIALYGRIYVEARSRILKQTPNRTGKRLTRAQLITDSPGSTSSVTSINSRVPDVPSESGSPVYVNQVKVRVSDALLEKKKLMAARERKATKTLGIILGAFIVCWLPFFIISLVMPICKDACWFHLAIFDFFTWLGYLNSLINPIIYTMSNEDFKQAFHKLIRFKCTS
Chain of Beta-2 adrenergic receptor (Homo sapiens) (P07550 whole entry, looked up): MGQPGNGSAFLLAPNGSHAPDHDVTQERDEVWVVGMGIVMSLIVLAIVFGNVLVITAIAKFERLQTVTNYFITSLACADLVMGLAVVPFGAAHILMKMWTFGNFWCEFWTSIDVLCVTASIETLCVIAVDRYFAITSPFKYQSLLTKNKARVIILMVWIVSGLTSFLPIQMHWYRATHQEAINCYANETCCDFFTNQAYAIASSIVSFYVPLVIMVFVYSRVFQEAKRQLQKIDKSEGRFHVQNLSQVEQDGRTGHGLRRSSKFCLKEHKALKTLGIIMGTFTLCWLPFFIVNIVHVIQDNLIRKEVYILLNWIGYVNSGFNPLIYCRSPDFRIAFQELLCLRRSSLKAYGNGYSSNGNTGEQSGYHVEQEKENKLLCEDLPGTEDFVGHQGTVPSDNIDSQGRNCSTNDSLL
Chain of D(2) dopamine receptor (Homo sapiens) (P14416 whole entry): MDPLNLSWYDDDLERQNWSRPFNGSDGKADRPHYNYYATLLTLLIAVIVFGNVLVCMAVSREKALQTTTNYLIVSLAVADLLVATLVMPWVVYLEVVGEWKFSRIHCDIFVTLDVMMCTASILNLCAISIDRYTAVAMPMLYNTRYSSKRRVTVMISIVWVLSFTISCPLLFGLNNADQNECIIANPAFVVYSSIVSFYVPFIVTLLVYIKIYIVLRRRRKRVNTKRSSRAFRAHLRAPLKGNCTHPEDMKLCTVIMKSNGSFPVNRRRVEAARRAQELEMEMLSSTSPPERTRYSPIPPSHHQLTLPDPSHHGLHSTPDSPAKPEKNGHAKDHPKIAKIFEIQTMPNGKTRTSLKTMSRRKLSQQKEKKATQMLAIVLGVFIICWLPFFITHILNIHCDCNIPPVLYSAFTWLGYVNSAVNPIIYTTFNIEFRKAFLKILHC
Chain of 5-hydroxytryptamine receptor 6 (Homo sapiens) (P50406 whole entry): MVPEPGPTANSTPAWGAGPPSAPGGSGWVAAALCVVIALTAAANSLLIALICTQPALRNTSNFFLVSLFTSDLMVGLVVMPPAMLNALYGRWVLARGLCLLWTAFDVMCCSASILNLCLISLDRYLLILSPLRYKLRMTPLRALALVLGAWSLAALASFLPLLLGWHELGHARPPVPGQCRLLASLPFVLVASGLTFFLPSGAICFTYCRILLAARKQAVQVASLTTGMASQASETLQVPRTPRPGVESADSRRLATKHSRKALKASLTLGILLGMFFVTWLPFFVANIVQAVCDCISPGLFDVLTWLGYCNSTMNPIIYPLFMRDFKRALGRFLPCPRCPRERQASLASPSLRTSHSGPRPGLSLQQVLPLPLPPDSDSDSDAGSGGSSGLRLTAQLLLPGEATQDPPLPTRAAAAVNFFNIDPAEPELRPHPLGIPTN
Chain of 5-hydroxytryptamine receptor 3A (Homo sapiens) (P46098 whole entry): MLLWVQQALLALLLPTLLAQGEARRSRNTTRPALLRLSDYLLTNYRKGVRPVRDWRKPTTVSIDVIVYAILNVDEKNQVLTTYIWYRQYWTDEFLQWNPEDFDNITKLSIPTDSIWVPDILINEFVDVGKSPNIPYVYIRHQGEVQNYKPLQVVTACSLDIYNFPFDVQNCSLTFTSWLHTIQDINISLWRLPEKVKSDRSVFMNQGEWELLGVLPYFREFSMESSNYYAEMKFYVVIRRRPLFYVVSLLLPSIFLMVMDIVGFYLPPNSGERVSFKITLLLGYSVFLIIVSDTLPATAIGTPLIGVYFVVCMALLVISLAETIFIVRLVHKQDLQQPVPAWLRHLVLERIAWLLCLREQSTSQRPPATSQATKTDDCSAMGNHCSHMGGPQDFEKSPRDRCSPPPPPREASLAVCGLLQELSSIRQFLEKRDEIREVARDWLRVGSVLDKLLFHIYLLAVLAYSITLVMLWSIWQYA
Chain of D(1A) dopamine receptor (Homo sapiens) (P21728 whole entry): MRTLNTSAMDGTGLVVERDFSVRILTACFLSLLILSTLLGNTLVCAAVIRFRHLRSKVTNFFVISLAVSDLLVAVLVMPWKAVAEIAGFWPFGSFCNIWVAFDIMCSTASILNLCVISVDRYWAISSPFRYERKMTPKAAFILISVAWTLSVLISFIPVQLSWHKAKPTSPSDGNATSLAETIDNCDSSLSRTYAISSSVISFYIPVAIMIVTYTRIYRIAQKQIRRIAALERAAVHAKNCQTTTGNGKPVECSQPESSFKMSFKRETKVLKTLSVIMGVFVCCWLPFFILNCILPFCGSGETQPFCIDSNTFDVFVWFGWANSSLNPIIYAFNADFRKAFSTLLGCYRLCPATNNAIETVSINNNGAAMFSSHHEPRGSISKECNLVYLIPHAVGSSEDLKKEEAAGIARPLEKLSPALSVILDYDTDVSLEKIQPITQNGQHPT
Chain of Muscarinic acetylcholine receptor M3 (Homo sapiens) (P20309 whole entry, looked up): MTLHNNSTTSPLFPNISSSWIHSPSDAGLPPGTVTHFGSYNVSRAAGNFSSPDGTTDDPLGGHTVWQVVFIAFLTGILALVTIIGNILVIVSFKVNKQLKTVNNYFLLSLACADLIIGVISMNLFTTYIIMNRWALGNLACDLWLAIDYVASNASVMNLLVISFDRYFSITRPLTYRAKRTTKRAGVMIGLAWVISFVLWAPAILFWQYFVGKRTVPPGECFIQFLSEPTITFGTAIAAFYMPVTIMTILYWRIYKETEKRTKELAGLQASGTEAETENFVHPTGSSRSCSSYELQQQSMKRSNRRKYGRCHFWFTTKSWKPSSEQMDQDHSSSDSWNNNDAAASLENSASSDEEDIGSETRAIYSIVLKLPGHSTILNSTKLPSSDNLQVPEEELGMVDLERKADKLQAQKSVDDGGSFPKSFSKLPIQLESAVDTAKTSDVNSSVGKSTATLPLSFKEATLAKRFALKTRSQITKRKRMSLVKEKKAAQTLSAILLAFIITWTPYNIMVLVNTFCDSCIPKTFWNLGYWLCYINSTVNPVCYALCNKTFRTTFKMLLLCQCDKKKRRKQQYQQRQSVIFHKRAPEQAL
Chain of Alpha-2A adrenergic receptor (Homo sapiens) (P08913 whole entry): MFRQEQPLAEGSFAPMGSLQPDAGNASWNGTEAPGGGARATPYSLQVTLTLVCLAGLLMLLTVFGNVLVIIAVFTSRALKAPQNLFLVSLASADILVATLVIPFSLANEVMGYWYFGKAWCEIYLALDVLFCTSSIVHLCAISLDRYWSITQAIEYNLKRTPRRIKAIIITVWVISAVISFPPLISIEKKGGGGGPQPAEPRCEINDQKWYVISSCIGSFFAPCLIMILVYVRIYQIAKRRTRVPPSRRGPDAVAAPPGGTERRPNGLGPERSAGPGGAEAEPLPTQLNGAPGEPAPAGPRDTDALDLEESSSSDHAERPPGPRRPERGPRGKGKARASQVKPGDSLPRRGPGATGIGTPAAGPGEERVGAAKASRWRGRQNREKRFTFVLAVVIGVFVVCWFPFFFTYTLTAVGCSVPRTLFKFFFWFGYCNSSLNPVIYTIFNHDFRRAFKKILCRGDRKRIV
Chain of Alpha-1A adrenergic receptor (P35348 whole entry): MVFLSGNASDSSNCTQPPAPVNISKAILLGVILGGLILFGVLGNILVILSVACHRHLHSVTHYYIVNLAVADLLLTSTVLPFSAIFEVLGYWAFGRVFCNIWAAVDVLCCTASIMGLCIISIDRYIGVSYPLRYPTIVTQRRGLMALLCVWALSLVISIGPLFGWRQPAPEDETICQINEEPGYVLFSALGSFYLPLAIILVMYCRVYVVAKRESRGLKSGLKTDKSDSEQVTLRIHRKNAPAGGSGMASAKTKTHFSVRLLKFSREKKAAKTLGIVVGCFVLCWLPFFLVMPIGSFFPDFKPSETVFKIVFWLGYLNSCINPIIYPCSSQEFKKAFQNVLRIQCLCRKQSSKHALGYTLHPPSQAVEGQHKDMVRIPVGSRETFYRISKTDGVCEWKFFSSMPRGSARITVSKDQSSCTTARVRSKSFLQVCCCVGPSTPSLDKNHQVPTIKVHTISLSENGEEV

Ki [1]: 1.61 nM
log K [2]: 3.57
Ki (D(4) dopamine receptor [3]): 184 nM
SMILES: COc1ccccc1N1CCN(CCN(C(=O)c2ccc3ccccc3c2)c2ccccn2)CC1

SMILES: O=C(C1CCCCC1)N(CCN1CC=C(c2ccccc2)CC1)c1ccccn1
inhibition [4]: < 50%
inhibition [5]: < 50%
Ki [1]: 0.51 nM
Ki [6]: 0.69 nM
Activity [7]: 44%
inhibition [8]: < 50%
inhibition [9]: < 50%
inhibition [10]: < 50%
inhibition [11]: < 50%
Ki [12]: 60 nM
inhibition [13]: < 50%
inhibition [14]: < 50%
inhibition [15]: > 50%
inhibition [16]: inactive
inhibition [17]: < 50%
Ki (D(4) dopamine receptor [18]): 55 nM
inhibition [19]: < 50%
inhibition [20]: < 50%
inhibition [21]: < 50%
log K [2]: 3.84
inhibition [22]: > 50%
Ki (D(4) dopamine receptor [3]): 385 nM
Ki [23]: 296 nM
inhibition [24]: < 50%
inhibition [25]: < 50%
inhibition [26]: < 50%
inhibition [27]: > 50%
inhibition [28]: < 50%
inhibition [29]: < 50%
inhibition [30]: < 50%
Ki [31]: 105 nM
inhibition [32]: < 50%
inhibition [33]: < 50%
inhibition [34]: < 50%
Ki [35]: 39 nM
inhibition [36]: > 50%
inhibition [37]: < 50%
inhibition [38]: < 50%
Ki [39]: 54 nM

SMILES: O=C(c1cccc2ccccc12)N(CCN1CC=C(c2ccccc2)CC1)c1ccccn1
Ki [1]: 14 nM
log K [2]: 4.07
Ki (D(4) dopamine receptor [3]): 252 nM

Ki [1]: 36.2 nM
log K [2]: 3.06
Ki (D(4) dopamine receptor [3]): 56.8 nM
SMILES: O=C(c1cnc2ccccc2n1)N(CCN1CCN(c2ccccc2)CC1)c1ccccn1

Ki [1]: 2.48 nM
log K [2]: 2.61
Ki (D(4) dopamine receptor [3]): 15 nM
SMILES: COc1ccccc1N1CCN(CCN(C(=O)c2cnc3ccccc3n2)c2ccccn2)CC1

inhibition [4]: < 50%
inhibition [5]: < 50%
Ki [1]: 1.21 nM
Ki [6]: 1.85 nM
Activity [7]: 44%
inhibition [8]: < 50%
inhibition [9]: < 50%
inhibition [10]: < 50%
inhibition [11]: < 50%
Ki [12]: 198 nM
inhibition [13]: < 50%
inhibition [14]: < 50%
inhibition [15]: > 50%
inhibition [16]: inactive
inhibition [17]: < 50%
Ki (D(4) dopamine receptor [18]): 246 nM
inhibition [19]: < 50%
inhibition [20]: < 50%
inhibition [21]: < 50%
log K [2]: 2.68
inhibition [22]: > 50%
Ki (D(4) dopamine receptor [3]): 946 nM
Ki [23]: 1050 nM
inhibition [24]: < 50%
inhibition [25]: < 50%
inhibition [26]: < 50%
inhibition [27]: > 50%
inhibition [28]: < 50%
inhibition [29]: < 50%
inhibition [30]: < 50%
Ki [31]: 327 nM
inhibition [32]: < 50%
inhibition [33]: < 50%
inhibition [34]: < 50%
Ki [35]: 584 nM
inhibition [36]: > 50%
inhibition [37]: < 50%
inhibition [38]: < 50%
Ki [39]: 180 nM
SMILES: O=C(C1CCCCC1)N(CCN1CCN(c2ccccc2)CC1)c1ccccn1

Ki [1]: 16.3 nM
log K [2]: 3.48
Ki (D(4) dopamine receptor [3]): 807 nM
SMILES: O=C(c1ccc2ccccc2c1)N(CCN1CCN(c2ccccc2)CC1)c1ccccn1

Ki [1]: 1.89 nM
log K [2]: 3.26
Ki (D(4) dopamine receptor [3]): 69 nM
SMILES: COc1ccccc1N1CCN(CCN(C(=O)c2cccc3ccccc23)c2ccccn2)CC1

Ki [1]: 35.8 nM
log K [2]: 3.27
Ki (D(4) dopamine receptor [3]): 550 nM
SMILES: O=C(c1cccc2ccccc12)N(CCN1CCN(c2ccccc2)CC1)c1ccccn1

SMILES: O=C(c1cnc2ccccc2n1)N(CCN1CC=C(c2ccccc2)CC1)c1ccccn1
Ki [1]: 8.27 nM
log K [2]: 3.33
Ki (D(4) dopamine receptor [3]): 35 nM

SMILES: O=C(c1ccc2ccccc2c1)N(CCN1CC=C(c2ccccc2)CC1)c1ccccn1
Ki [1]: 8.36 nM
log K [2]: 4.36
Ki (D(4) dopamine receptor [3]): 291 nM
